Source: ChEMBL document CHEMBL4270577, “Synthesis, anticancer activity and molecular modeling studies of 1,2,4-triazole derivatives as EGFR inhibitors” (Eur J Med Chem, 2018)

Experiments:
PC-3 = assay: Growth inhibition of human PC3 cells at 10 uM incubated for 48 hrs by sulforhodamine B assay relative to control; format: functional; settings: PC-3, 48 h, read-out: GI
NCI-H23 = assay: Growth inhibition of human NCI-H23 cells at 10 uM incubated for 48 hrs by sulforhodamine B assay relative to control; format: functional; settings: NCI-H23, 48 h, read-out: GI
A498 = assay: Growth inhibition of human A498 cells at 10 uM incubated for 48 hrs by sulforhodamine B assay relative to control; format: functional; settings: A498, 48 h, read-out: GI
SNB-75 = assay: Growth inhibition of human SNB75 cells at 10 uM incubated for 48 hrs by sulforhodamine B assay relative to control; format: functional; settings: SNB-75, 48 h, read-out: GI
LOX IMVI = assay: Growth inhibition of human LOXIMVI cells at 10 uM incubated for 48 hrs by sulforhodamine B assay relative to control; format: functional; settings: read-out: GI
SR = assay: Growth inhibition of human SR cells at 10 uM incubated for 48 hrs by sulforhodamine B assay relative to control; format: functional; settings: read-out: GI
NCI-H522 = assay: Growth inhibition of human NCI-H522 cells at 10 uM incubated for 48 hrs by sulforhodamine B assay relative to control; format: functional; settings: NCI-H522, 48 h, read-out: GI
HT-29 [1] = assay: Antiproliferative activity against human HT-29 cells after 48 hrs by propidium iodide staining-based fluorometric analysis; format: functional, cell-based; settings: HT-29, 48 h
SK-MEL-2 = assay: Growth inhibition of human SK-MEL-2 cells at 10 uM incubated for 48 hrs by sulforhodamine B assay relative to control; format: functional; settings: SK-MEL-2, 48 h, read-out: GI
CCRF-CEM = assay: Growth inhibition of human CCRF-CEM cells at 10 uM incubated for 48 hrs by sulforhodamine B assay relative to control; format: functional; settings: read-out: GI
SF-539 = assay: Growth inhibition of human SF539 cells at 10 uM incubated for 48 hrs by sulforhodamine B assay relative to control; format: functional; settings: SF-539, 48 h, read-out: GI
RXF 393 = assay: Growth inhibition of human RXF393 cells at 10 uM incubated for 48 hrs by sulforhodamine B assay relative to control; format: functional; settings: RXF 393, 48 h, read-out: GI
BT-549 = assay: Growth inhibition of human BT549 cells at 10 uM incubated for 48 hrs by sulforhodamine B assay relative to control; format: functional; settings: BT-549, 48 h, read-out: GI
T47D = assay: Growth inhibition of human T47D cells at 10 uM incubated for 48 hrs by sulforhodamine B assay relative to control; format: functional; settings: read-out: GI
SK-MEL-28 = assay: Growth inhibition of human SK-MEL-28 cells at 10 uM incubated for 48 hrs by sulforhodamine B assay relative to control; format: functional; settings: SK-MEL-28, 48 h, read-out: GI
[2] = molecular target: Epidermal growth factor receptor (Homo sapiens, UniProt P00533); assay: Inhibition of His6-tagged recombinant EGFR cytoplasmic domain (645 to 1186 residues) (unknown origin) expressed in baculovirus infected Sf9 insect cells preincubated for 10 mins followed by ATP-MgCl2 addition and measured after 1 hr by DELFIA/time-resolved fluorometric analysis
Epidermal growth factor receptor, sequence (P00533 whole entry, the tested form may be a part): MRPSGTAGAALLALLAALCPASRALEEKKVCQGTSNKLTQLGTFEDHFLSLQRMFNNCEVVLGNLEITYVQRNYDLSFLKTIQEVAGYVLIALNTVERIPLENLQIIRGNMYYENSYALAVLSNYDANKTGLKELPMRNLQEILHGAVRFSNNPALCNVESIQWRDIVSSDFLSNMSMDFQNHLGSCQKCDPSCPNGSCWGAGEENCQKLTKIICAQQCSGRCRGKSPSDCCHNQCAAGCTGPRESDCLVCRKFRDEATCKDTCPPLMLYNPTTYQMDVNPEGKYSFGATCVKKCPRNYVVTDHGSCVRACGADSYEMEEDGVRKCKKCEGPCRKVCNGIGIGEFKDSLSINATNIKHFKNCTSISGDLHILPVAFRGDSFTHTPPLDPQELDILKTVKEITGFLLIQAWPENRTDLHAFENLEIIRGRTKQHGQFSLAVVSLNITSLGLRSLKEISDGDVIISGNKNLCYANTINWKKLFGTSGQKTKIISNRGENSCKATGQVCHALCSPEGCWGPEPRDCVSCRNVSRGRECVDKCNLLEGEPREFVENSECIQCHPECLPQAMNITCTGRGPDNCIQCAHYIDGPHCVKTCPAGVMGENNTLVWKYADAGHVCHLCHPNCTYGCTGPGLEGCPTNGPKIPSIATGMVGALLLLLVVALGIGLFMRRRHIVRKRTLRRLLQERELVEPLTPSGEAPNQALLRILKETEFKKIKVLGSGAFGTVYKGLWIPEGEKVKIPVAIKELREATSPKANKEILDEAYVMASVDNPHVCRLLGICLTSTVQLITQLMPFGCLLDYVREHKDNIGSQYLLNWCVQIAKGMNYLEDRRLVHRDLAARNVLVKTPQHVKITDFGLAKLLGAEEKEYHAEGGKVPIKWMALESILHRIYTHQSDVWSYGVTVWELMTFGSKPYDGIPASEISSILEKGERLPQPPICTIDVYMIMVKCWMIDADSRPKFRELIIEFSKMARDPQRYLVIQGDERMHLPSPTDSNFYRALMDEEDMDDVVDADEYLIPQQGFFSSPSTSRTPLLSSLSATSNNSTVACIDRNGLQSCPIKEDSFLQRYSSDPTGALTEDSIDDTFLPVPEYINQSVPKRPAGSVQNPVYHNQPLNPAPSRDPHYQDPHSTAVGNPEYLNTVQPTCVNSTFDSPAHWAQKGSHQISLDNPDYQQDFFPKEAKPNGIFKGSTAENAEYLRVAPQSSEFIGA

KM12 [3] = assay: Growth inhibition of human KM12 cells at 10 uM incubated for 48 hrs by sulforhodamine B assay relative to control; format: functional; settings: KM12, 48 h, read-out: GI
MOLT-4 = assay: Growth inhibition of human MOLT4 cells at 10 uM incubated for 48 hrs by sulforhodamine B assay relative to control; format: functional; settings: MOLT-4, 48 h, read-out: GI
ACHN = assay: Growth inhibition of human ACHN cells at 10 uM incubated for 48 hrs by sulforhodamine B assay relative to control; format: functional; settings: read-out: GI
K562 = assay: Growth inhibition of human K562 cells at 10 uM incubated for 48 hrs by sulforhodamine B assay relative to control; format: functional; settings: K562, 48 h, read-out: GI
HCT-15 = assay: Growth inhibition of human HCT15 cells at 10 uM incubated for 48 hrs by sulforhodamine B assay relative to control; format: functional; settings: HCT-15, 48 h, read-out: GI
SF-295 = assay: Growth inhibition of human SF295 cells at 10 uM incubated for 48 hrs by sulforhodamine B assay relative to control; format: functional; settings: SF-295, 48 h, read-out: GI
HCT-116 = assay: Growth inhibition of human HCT116 cells at 10 uM incubated for 48 hrs by sulforhodamine B assay relative to control; format: functional; settings: HCT-116, 48 h, read-out: GI
MDA-MB-231 = assay: Growth inhibition of human MDA-MB-231/ATCC cells at 10 uM incubated for 48 hrs by sulforhodamine B assay relative to control; format: functional; settings: MDA-MB-231, 48 h, read-out: GI
NCI/ADR-RES = assay: Growth inhibition of human NCI/ADR-RES cells at 10 uM incubated for 48 hrs by sulforhodamine B assay relative to control; format: functional; settings: read-out: GI
RPMI-8226 = assay: Growth inhibition of human RPMI8226 cells at 10 uM incubated for 48 hrs by sulforhodamine B assay relative to control; format: functional; settings: RPMI-8226, 48 h, read-out: GI
SK-OV-3 = assay: Cytotoxicity against human SKOV3 cells incubated for 48 hrs by sulforhodamine B assay; format: functional; settings: SK-OV-3, 48 h
OVCAR-4 = assay: Cytotoxicity against human OVCAR4 cells incubated for 48 hrs by sulforhodamine B assay; format: functional; settings: OVCAR-4, 48 h
HOP-92 = assay: Cytotoxicity against human HOP92 cells incubated for 48 hrs by sulforhodamine B assay; format: functional; settings: HOP-92, 48 h
HT-29 [4] = assay: Cytotoxicity against human HT-29 cells incubated for 48 hrs by sulforhodamine B assay; format: functional; settings: HT-29, 48 h
Tubulin (Homo sapiens) = Tubulin (Homo sapiens) (UniProt P68371+Q9H4B7+P0DPH7+P68366+Q13509+Q71U36+P04350+Q3ZCM7+P07437+P68363+Q9BQE3+Q6PEY2+Q13885+Q9BVA1+Q9BUF5); assay: Inhibition of tubulin (unknown origin) polymerization assessed as polymerized tubulin level at 5 to 25 uM by fluorescence assay; format: protein-complex assay
A549 = assay: Cytotoxicity against human A549/ATCC cells incubated for 48 hrs by sulforhodamine B assay; format: functional; settings: A549, 48 h
KM12 [5] = assay: Cytotoxicity against human KM12 cells incubated for 48 hrs by sulforhodamine B assay; format: functional; settings: KM12, 48 h
SF-268 = assay: Cytotoxicity against human SF268 cells incubated for 48 hrs by sulforhodamine B assay; format: functional; settings: SF-268, 48 h
[6] = read-out: LC50 (the source's name)

Compound COc1cc(-c2nc3sc(-c4ccccc4)cn3n2)cc(OC)c1OC has an inhibition of growth at 10 µM (PC-3) of 53%, an inhibition of growth at 10 µM (NCI-H23) of 17% and an inhibition of growth at 10 µM (A498) of 29%. It also gave an inhibition of growth at 10 µM (SNB-75) of 24%, an inhibition of growth at 10 µM (LOX IMVI) of 33% and an inhibition of growth at 10 µM (SR) of 65%. The inhibition of growth at 10 µM (NCI-H522) was 30%, the IC50 (HT-29 [1]) was 4.9 µM and the inhibition of growth at 10 µM (SK-MEL-2) was 20%. The inhibition of growth at 10 µM (CCRF-CEM) was 49%, the inhibition of growth at 10 µM (SF-539) was 15% and the inhibition of growth at 10 µM (RXF 393) was 17%. It also gave an inhibition of growth at 10 µM (BT-549) of 18%, an inhibition of growth at 10 µM (T47D) of 55% and an inhibition of growth at 10 µM (SK-MEL-28) of 4%. The IC50 [2] was 2.8 µM, the inhibition of growth at 10 µM (KM12 [3]) was 14% and the inhibition of growth at 10 µM (MOLT-4) was 44%. For the same compound, the inhibition of growth at 10 µM (ACHN) was 15%, the inhibition of growth at 10 µM (K562) was 39% and the inhibition of growth at 10 µM (HCT-15) was 42%. The inhibition of growth at 10 µM (SF-295) was 16%, the inhibition of growth at 10 µM (HCT-116) was 40% and the inhibition of growth at 10 µM (MDA-MB-231) was 41%. The inhibition of growth at 10 µM (NCI/ADR-RES) was 39% and the inhibition of growth at 10 µM (RPMI-8226) was 42%.
In the case of COc1ccc(-c2nc3sc(-c4ccc(Cl)cc4)cn3n2)cc1, the inhibition of growth at 10 µM (PC-3) is reported as 41.9%, the inhibition of growth at 10 µM (NCI-H23) is reported as 41.5% and the GI50 (SK-OV-3) is reported as 11.7 µM. For the same compound, the TGI (SK-OV-3) was over 50 µM, the CC50 (SK-OV-3; [6]) was over 50 µM and the inhibition of growth at 10 µM (A498) was -25.8%. It also gave an inhibition of growth at 10 µM (SNB-75) of -1.66%, a GI50 (OVCAR-4) of 0.766 µM and a TGI (OVCAR-4) of 1.63 µM. It also gave a CC50 (OVCAR-4; [6]) of 3.45 µM, an inhibition of growth at 10 µM (LOX IMVI) of 45.8% and a GI50 (HOP-92) of 0.91 µM. The TGI (HOP-92) was 7.61 µM, the CC50 (HOP-92; [6]) was over 50 µM and the inhibition of growth at 10 µM (SR) was 48.9%. It also gave an inhibition of growth at 10 µM (NCI-H522) of 39%, an IC50 (HT-29 [1]) of 2.4 µM and an inhibition of growth at 10 µM (CCRF-CEM) of 30.5%. The inhibition of growth at 10 µM (SF-539) was 84.6%, the inhibition of growth at 10 µM (RXF 393) was 41% and the GI50 (HT-29 [4]) was 2.96 µM. For the same compound, the TGI (HT-29 [4]) was over 50 µM, the CC50 (HT-29 [4]; [6]) was over 50 µM and the Activity (Tubulin (Homo sapiens)) was 1510 a.u. For the same compound, the inhibition of growth at 10 µM (T47D) was 45.1%, the IC50 [2] was 1.5 µM and the inhibition of growth at 10 µM (KM12 [3]) was 45.3%. The GI50 (A549) was 1.59 µM, the TGI (A549) was 5.89 µM and the CC50 (A549; [6]) was 46.9 µM. The inhibition of growth at 10 µM (MOLT-4) was 17.4%, the inhibition of growth at 10 µM (ACHN) was -74% and the inhibition of growth at 10 µM (K562) was 38.5%. The GI50 (KM12 [5]) was 12.2 µM, the TGI (KM12 [5]) was over 50 µM and the CC50 (KM12 [5]; [6]) was over 50 µM. The inhibition of growth at 10 µM (HCT-15) was 28%, the inhibition of growth at 10 µM (SF-295) was 75.8% and the inhibition of growth at 10 µM (HCT-116) was -16%. It also gave an inhibition of growth at 10 µM (MDA-MB-231) of 86.7%, an inhibition of growth at 10 µM (NCI/ADR-RES) of 54.4% and an inhibition of growth at 10 µM (RPMI-8226) of 55.1%. It also gave a GI50 (SF-268) of 48 µM, a TGI (SF-268) of over 50 µM and a CC50 (SF-268; [6]) of over 50 µM.
Clc1ccc(-c2cn3nc(-c4ccccc4)nc3s2)cc1 gave an inhibition of growth at 10 µM (PC-3) of 31%, an inhibition of growth at 10 µM (NCI-H23) of 33% and an inhibition of growth at 10 µM (A498) of 52%. For the same compound, the inhibition of growth at 10 µM (SNB-75) was 36%, the inhibition of growth at 10 µM (LOX IMVI) was 19% and the inhibition of growth at 10 µM (NCI-H522) was 29%. The IC50 (HT-29 [1]) was 5.9 µM, the inhibition of growth at 10 µM (CCRF-CEM) was 6% and the inhibition of growth at 10 µM (SF-539) was 21%. The inhibition of growth at 10 µM (RXF 393) was 39%, the inhibition of growth at 10 µM (T47D) was 74% and the IC50 [2] was 7.2 µM. The inhibition of growth at 10 µM (KM12 [3]) was 30%, the inhibition of growth at 10 µM (MOLT-4) was 8% and the inhibition of growth at 10 µM (ACHN) was 49%. The inhibition of growth at 10 µM (K562) was 24%, the inhibition of growth at 10 µM (HCT-15) was 9% and the inhibition of growth at 10 µM (SF-295) was 21%. For the same compound, the inhibition of growth at 10 µM (HCT-116) was 41%, the inhibition of growth at 10 µM (MDA-MB-231) was 57% and the inhibition of growth at 10 µM (NCI/ADR-RES) was 34%. It also gave an inhibition of growth at 10 µM (RPMI-8226) of 10%.
